Source: the supplement of paper PMC10307832

Assays:
Experiment in all cases: relative viability (nuclei count vs DMSO), 5 days (fraction); higher = more cells survive
Apatinib + Palbociclib = compound: N#CC1(c2ccc(NC(=O)c3cccnc3NCc3ccncc3)cc2)CCCC1 [Apatinib] + CC(=O)c1c(C)c2cnc(Nc3ccc(N4CCNCC4)cn3)nc2n(C2CCCC2)c1=O [Palbociclib] (partner 0.5 µM)
Procedure, shortened: (§1)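 Cells from lung cancer lines were seeded into 1536-well plates and, one day later, dosed by pin tool. Treatments were either a single drug or a fixed dose of an anchor drug with five library-drug doses (not always all listed) in √10 steps. After 5 days, nuclei were stained in a one-step fixation (final 0.05% Triton X-100, 1% formaldehyde, 1 ug/ml Hoechst) and counted on 4× images, and relative viability is the treated-to-vehicle nuclei ratio, as the median of duplicate plates.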

Metformin + AZD7762 = compound: CN(C)C(=N)NC(=N)N [Metformin] + NC(=O)Nc1cc(-c2cccc(F)c2)sc1C(=O)N[C@H]1CCCNC1 [AZD7762] (partner 0.2 µM)
Procedure, shortened: as §1

Metformin + Palbociclib = compound: CN(C)C(=N)NC(=N)N [Metformin] + CC(=O)c1c(C)c2cnc(Nc3ccc(N4CCNCC4)cn3)nc2n(C2CCCC2)c1=O [Palbociclib] (partner 0.5 µM)
Procedure, shortened: as §1

Metformin + Luminespib = compound: CN(C)C(=N)NC(=N)N [Metformin] + CCNC(=O)c1noc(-c2cc(C(C)C)c(O)cc2O)c1-c1ccc(CN2CCOCC2)cc1 [Luminespib] (partner 0.01 µM)
Procedure, shortened: as §1

Cell Line	relative viability (Apatinib + Palbociclib; first compound 0.08 µM)	relative viability (Apatinib + Palbociclib; first compound 0.253 µM)	relative viability (Apatinib + Palbociclib; first compound 0.8 µM)	relative viability (Apatinib + Palbociclib; first compound 2.53 µM)	relative viability (Apatinib + Palbociclib; first compound 8 µM)	relative viability (Metformin + AZD7762; first compound 31.62 µM)	relative viability (Metformin + AZD7762; first compound 100 µM)	relative viability (Metformin + AZD7762; first compound 316.23 µM)	relative viability (Metformin + AZD7762; first compound 1000 µM)	relative viability (Metformin + Palbociclib; first compound 31.62 µM)	relative viability (Metformin + Palbociclib; first compound 100 µM)	relative viability (Metformin + Palbociclib; first compound 316.23 µM)	relative viability (Metformin + Palbociclib; first compound 1000 µM)	relative viability (Metformin + Luminespib; first compound 10 µM)	relative viability (Metformin + Luminespib; first compound 31.62 µM)	relative viability (Metformin + Luminespib; first compound 100 µM)	relative viability (Metformin + Luminespib; first compound 316.23 µM)	relative viability (Metformin + Luminespib; first compound 1000 µM)	relative viability (Metformin + AZD7762; first compound 10 µM)	relative viability (Metformin + Palbociclib; first compound 10 µM)
HCC-44	0.999	0.987	0.894	0.839	0.8	1	1.01	0.994	1.02	0.917	0.959	0.93	0.887	1.19	1.07	1.03	0.926	0.748	–	–
HOP-62	0.441	0.366	0.377	0.361	0.219	0.41	0.416	0.325	0.492	0.405	0.358	0.387	0.374	0.77	0.878	0.849	0.85	0.796	0.248	0.372
NCI-H358	0.137	0.133	0.123	0.124	0.123	0.449	0.461	0.519	0.532	0.125	0.122	0.138	0.141	0.575	0.677	0.555	0.211	0.364	0.619	0.114
NCI-H596	–	–	–	–	–	1.13	1.3	1.08	1.23	–	–	–	–	0.98	1.18	1.08	1.02	1.06	1.18	–
ABC-1	–	1.02	0.663	0.531	0.583	1.03	0.986	1.1	0.909	0.9	0.62	0.592	0.279	0.481	0.694	0.883	0.306	0.371	1.24	–
SW 900	0.616	0.548	0.558	0.478	0.435	0.624	–	0.537	0.761	0.536	–	0.497	0.578	0.152	0.177	0.179	0.192	0.214	0.666	0.542
NCI-H1734	0.375	0.364	0.334	0.318	0.312	0.542	0.541	0.579	0.53	0.329	0.292	0.359	0.371	0.145	0.2	0.206	0.181	0.19	0.61	0.284
HARA	0.291	0.262	0.303	0.271	0.272	0.47	0.362	0.293	0.287	0.297	0.442	0.279	0.394	–	0.897	0.895	0.775	0.776	0.279	0.323
NCI-H1703	–	–	–	–	–	0.139	0.135	0.112	0.132	–	–	–	–	–	–	–	–	–	0.138	–
NCI-H1915	0.549	0.524	0.555	0.5	0.475	0.713	0.686	0.669	0.707	0.406	0.515	0.462	0.463	–	0.724	0.835	0.785	0.795	–	–
